From patent US9963455B2, “Pyrazolo[1,5-a]pyrimidines as antiviral compounds” (Curovir AB, priority 2014, dated 2018)

Tests used:
[1] = test system: Coxsackie B3 virus, Nancy strain; experiment: Anti-viral efficacy against Coxsackie virus in a neutropenic mouse model; format: in vivo, Male BALB/c mice; details: neutropenic BALB/c mice, Coxsackie B3 i.p., 200 mg/kg once daily per orally from day 1 or day 3
Protocol: The FIGURE is a diagram showing the number of surviving animals as a function of the number of days after infections with Coxsackie B3 virus, in mice treated with the compound of Ex. 9, 200 mg/kg once daily per orally starting on day 1 (group 1) or on day 3 (group 2), and in mice treated with vehicle only (0.4% Tween 80, 2% glycerol and 15% β-hydroxypropyl cyclodextrin).
Evaluation of Anti-Viral Efficacy Against Coxsackie Virus in a Neutropenic Mouse Model Test System Male BALB/c mice, weighing 22-26 grams were used with 4 animals/group. Neutropenic induction: Cyclophosphamide Challenge organism: Coxsackie (human origin) virus CVB3 Route of infection: Intraperitoneal Route of administration: per oral End point: Cumulative survival
All experimental procedures involving animals were performed according to protocols approved by the Institutional Animal Ethics Committee of Anthem Biosciences. The mice, male BALB/c mice were housed 4 animals per cage and allowed access to feed and water ad libitum under controlled conditions. Mice were acclimatized for 7 days prior to the study. The animals were observed daily for general health during this period. […]
The animals were observed daily during the study period for signs of mortality, morbidity (paralysis) and signs of acute toxicity. Abnormal clinical signs were recorded if observed.

[2] = test system: Human parechovirus strain 1; experiment: CPE inhibition in mammalian cell culture, HPeV-1; format: cell-based; details: Parechovirus A; Conc. 10 µM; read-out: antiviral effect, HPeV-1
[3] = test system: coxsackie B virus strain 5; experiment: CPE inhibition in mammalian cell culture, Cox-B5; format: cell-based; details: read-out: antiviral effect, B5
[4] = test system: coxsackie B virus strain 2; experiment: CPE inhibition in mammalian cell culture, Cox-B2; format: cell-based; details: read-out: antiviral effect, B2
Enterovirus strain 71 = experiment: CPE inhibition in mammalian cell culture, EV71; format: cell-based; design: inhibition: dose or concentration left out as unconfirmed
Ljungan virus strain 012 = experiment: CPE inhibition in mammalian cell culture, LV012; format: cell-based; details: Parechovirus B; Conc. 10 µM; read-out: antiviral effect, LV012
[5] = female Sprague Dawley rats, single dose
[6] = Sprague Dawley rats, 250 and 750 mg/kg body weight/day for 7 days
Porcine Tescho virus = experiment: microbe, parasite or virus in culture; format: cell-based; design: dose or concentration left out as unconfirmed; details: Conc.; read-out: antiviral effect, PTV
polio virus strain 1 = experiment: microbe, parasite or virus in culture; format: cell-based; details: read-out: antiviral effect, Polio 1
[7] = test system: encephalomyocarditis virus; experiment: CPE inhibition in mammalian cell culture, EMCV; format: cell-based; design: inhibition: dose or concentration left out as unconfirmed; details: Cardiovirus A; Conc.; read-out: antiviral effect, EMCV
[8] = test system: coxsackie B virus strain 4; experiment: CPE inhibition in mammalian cell culture, Cox-B4; format: cell-based; details: read-out: antiviral effect, B4
Ljungan virus strain 145 = experiment: CPE inhibition in mammalian cell culture, LV145; format: cell-based; design: inhibition: dose or concentration left out as unconfirmed; details: Parechovirus B; Conc.; read-out: antiviral effect, LV145
[9] = test system: coxsackie B virus strain 1; experiment: CPE inhibition in mammalian cell culture, Cox-B1; format: cell-based; details: read-out: antiviral effect, B1
Enterovirus strain 30 = experiment: CPE inhibition in mammalian cell culture, EV30; format: cell-based; details: Conc. 10 µM, read-out: antiviral effect, EV30
Theiler = experiment: CPE inhibition in mammalian cell culture, Theiler; format: cell-based; details: Conc. 10 μM

Compound | Cumulative survival [1] | inhibition at 10 µM [2] | adverse clinical signs or mortality (BALB/C mice, 200 and 400 mg/kg body weight/day for 7 days) | No Observed Adverse Effect Level (NOAEL) (mouse, in vivo, po) | inhibition at 10000 µM [3] | inhibition at 10000 µM [4] | inhibition (Enterovirus strain 71; Conc., read-out: antiviral effect, EV71) | inhibition at 0.25 µM (Enterovirus strain 71; EV71, Conc. 0.25 μM) | inhibition at 10 µM (Ljungan virus strain 012) | maximum tolerable dose [5] | adverse clinical signs and mortality [6] | inhibition (Porcine Tescho virus) | inhibition at 10000 µM (polio virus strain 1) | inhibition [7] | inhibition at 10000 µM [8] | inhibition (Ljungan virus strain 145) | inhibition at 10000 µM [9] | inhibition at 10 µM (Enterovirus strain 30) | inhibition at 10 µM (Theiler)
COc1ccc(-c2c(C)nn3c(NCc4ccc(F)cc4)cc(C)nc23)cc1OC [Ex. 9, 3-(3,4-dimethoxyphenyl)-N-[(4-fluorophenyl)methyl]-2,5-dimethyl-pyrazolo[1,5-a]pyrimidin-7-amine] | has an antiviral effect in vivo and can extend the life of the animals | 19% | did not reveal any adverse clinical signs or mortality | 400 mg/kg body weight/day | 73% | 76% | 16% | 93% | 18% | > 2000 mg/kg body weight | adverse clinical signs in both sexes at 750 mg/kg and mortality in one female at 750 mg/kg | 23% | 91% | 14% | 48% | 59% | 53% | 35% | –
Cc1cc(NCc2ccc(F)cc2)n2nc(C)c(-c3ccc(C(F)(F)F)cc3)c2n1 [Ex. 104, N-[(4-fluorophenyl)methyl]-2,5-dimethyl-3-[4-(trifluoromethyl)phenyl]pyrazolo[1,5-a]pyrimidin-7-amine] | – | – | – | – | – | – | – | – | – | – | – | – | – | – | – | – | – | – | 59%
